Consider 22 compounds from patent publication US20260042770A1, “NOVEL SULFONES AND THEIR USE AS NEUROPROTECTIVE AND/OR NEURORESTORATIVE AGENTS” (GENECODE, priority 2022, published 2026).

Bounds are passed on as bounds.

This test has as its target T1, GFRα1-RET (Homo sapiens, UniProt P56159).
T1 construct: expressed in transfected cells; host or cells: MG87 murine fibroblasts stably transfected with PathDetect Elk-1, GFRα1 and RET
T1 sequence (P56159 25-429 limits assumed): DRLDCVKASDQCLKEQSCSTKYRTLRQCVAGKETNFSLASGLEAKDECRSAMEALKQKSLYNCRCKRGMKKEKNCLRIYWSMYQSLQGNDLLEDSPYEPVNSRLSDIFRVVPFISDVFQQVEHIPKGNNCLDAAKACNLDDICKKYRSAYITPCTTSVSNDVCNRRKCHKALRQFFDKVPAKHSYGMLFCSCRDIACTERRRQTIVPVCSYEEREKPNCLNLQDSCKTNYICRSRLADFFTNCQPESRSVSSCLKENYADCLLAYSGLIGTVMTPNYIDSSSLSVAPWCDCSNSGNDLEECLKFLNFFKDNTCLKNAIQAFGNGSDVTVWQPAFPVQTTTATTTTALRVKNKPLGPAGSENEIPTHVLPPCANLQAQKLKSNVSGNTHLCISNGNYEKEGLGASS
Description: Elk1 luciferase reporter-gene assay in cells expressing GFRα1-RET. It counts as cell-based. The note with it: agonist/activator activity of Elk1 signaling; MG87 murine fibroblast stably transfected with PathDetect Elk-1, GFRα1 and RET; 6 concentrations, duplicate, two independent runs. Here is the method:
For EC50 determination, a dose-response test was performed using 6 concentrations of each tested compound. Dose-response curves were fitted using the sigmoidal dose-response (variable slope) analysis in GraphPad Prism program (Graph Pad Inc) and EC50 of agonist/activator activity was calculated. Dose-response experiments were all performed in duplicate, two times independently.
On to `CCCC(C)S(=O)(=O)c1ccc(OC)c(N2CCN(C(=O)c3ccc(F)cc3Cl)CC2C)c1` (racemic) [Cpd 016], for which the EC50 lay in the range of 1 to 10 µM.

Take `COc1ccc(S(=O)(=O)C2COC2)cc1N1CCN(C(=O)c2ccc(F)cc2Cl)CC1` [Cpd 011, (2-chloro-4-fluoro-phenyl)-[4-[2-methoxy-5-(oxetan-3-ylsulfonyl)phenyl]piperazin-1-yl]methanone]: the EC50 was 10 to 50 µM. The value for `O=C(c1ccc(F)cc1Cl)N1C[C@H]2CC[C@@H](C1)N2c1cc(S(=O)(=O)C2CCN(c3ccccc3)CC2)ccc1O` [Cpd 030, (2-chloro-4-fluoro-phenyl)-[(1S,5R)-8-[2-hydroxy-5-[(1-phenyl-4-piperidyl)sulfonyl]phenyl]-3,8-diazabicyclo[3.2.1]octan-3-yl]methanone] was less than 1 µM; that for `COc1ccc(S(=O)(=O)C2CCN(c3ccccc3)CC2)cc1N1[C@@H]2CC[C@H]1CN(C(=O)c1ccc(F)cc1Cl)C2` [Cpd 027, (2-chloro-4-fluoro-phenyl)-[(1S,5R)-8-[2-methoxy-5-[(1-phenyl-4-piperidyl)sulfonyl]phenyl]-3,8-diazabicyclo[3.2.1]octan-3-yl]methanone] was less than 1 µM. On to `COc1ccc(S(=O)(=O)C2CCCC2)cc1N1CCN(C(=O)c2ccc(F)cc2C(F)(F)F)CC1` [Cpd 002, [4-(5-cyclopentylsulfonyl-2-methoxy-phenyl)piperazin-1-yl]-[4-fluoro-2-(trifluoromethyl)phenyl]methanone], for which the EC50 was in the range of 10 to 50 µM. Compound `COc1ccc(S(=O)(=O)CC2CC2)cc1N1CCN(C(=O)c2ccc(F)cc2Cl)CC1` [Cpd 009, (2-chloro-4-fluoro-phenyl)-[4-[5-(cyclopropylmethylsulfonyl)-2-methoxy-phenyl]piperazin-1-yl]methanone] showed an EC50 of 1 to 10 µM.

For `CC(C)(C)CS(=O)(=O)c1cc(Cl)c(O)c(N2[C@@H]3CC[C@H]2CN(C(=O)c2ccc(F)cc2Cl)C3)c1` [Cpd 033, [(1S,5R)-8-[3-chloro-5-(2,2-dimethylpropylsulfonyl)-2-hydroxy-phenyl]-3,8-diazabicyclo[3.2.1]octan-3-yl]-(2-chloro-4-fluoro-phenyl)methanone], the EC50 is less than 1 µM. `CCC(CC)S(=O)(=O)c1ccc(OC)c(N2CCN(C(=O)c3ccc(F)cc3Cl)CC2C)c1` (racemic) [Cpd 007, (2-chloro-4-fluoro-phenyl)-[rac-(3S)-4-[5-(1-ethylpropylsulfonyl)-2-methoxy-phenyl]-3-methyl-piperazin-1-yl]methanone] registered an EC50 of 1 to 10 µM. The value for `CCC(CCCc1ccccc1)S(=O)(=O)c1ccc(OC)c(N2C3CCC2CN(C(=O)c2ccc(F)cc2Cl)C3)c1` (racemic) [Cpd 026, (2-chloro-4-fluoro-phenyl)-[(1S,5R)-8-[5-[(1SR)-1-ethyl-4-phenyl-butyl]sulfonyl-2-methoxy-phenyl]-3,8-diazabicyclo[3.2.1]octan-3-yl]methanone] was 1 to 10 µM; that for `COc1ccc(S(=O)(=O)C2CCN(CCc3ccc(F)cc3)CC2)cc1N1[C@@H]2CC[C@H]1CN(C(=O)c1ccc(F)cc1Cl)C2` [Cpd 029, (2-chloro-4-fluoro-phenyl)-[(1S,5R)-8-[5-[[1-[2-(4-fluorophenyl)ethyl]-4-piperidyl]sulfonyl]-2-methoxy-phenyl]-3,8-diazabicyclo[3.2.1]octan-3-yl]methanone] was 1 to 10 µM. The value for `CCCCS(=O)(=O)c1ccc(OC)c(N2[C@@H]3CC[C@H]2CN(C(=O)c2ccc(F)cc2Cl)C3)c1` [Cpd 020, [(1S,5R)-8-(5-butylsulfonyl-2-methoxy-phenyl)-3,8-diazabicyclo[3.2.1]octan-3-yl]-(2-chloro-4-fluoro-phenyl)methanone] was 1 to 10 µM; that for `COc1ccc(S(=O)(=O)C(C)C)cc1N1CCN(C(=O)c2ccc(F)cc2Cl)CC1` [Cpd 008, (2-chloro-4-fluoro-phenyl)-[4-(5-isopropylsulfonyl-2-methoxy-phenyl)piperazin-1-yl]methanone] was 10 to 50 µM. For the compound `COc1ccc(S(=O)(=O)CC(C)(C)C)cc1N1[C@@H]2CC[C@H]1CN(C(=O)c1ccc(F)cc1Cl)C2` [Cpd 015, (2-chloro-4-fluoro-phenyl)-[(1S,5R)-8-[5-(2,2-dimethylpropylsulfonyl)-2-methoxy-phenyl]-3,8-diazabicyclo[3.2.1]octan-3-yl]methanone], the EC50 was in the range of 1 to 10 µM. The compound `COc1ccc(S(=O)(=O)C2CCN(CCc3ccccc3)CC2)cc1N1[C@@H]2CC[C@H]1CN(C(=O)c1ccc(F)cc1Cl)C2` [Cpd 028, (2-chloro-4-fluoro-phenyl)-[(1S,5R)-8-[2-methoxy-5-[[1-(2-phenylethyl)-4-piperidyl]sulfonyl]phenyl]-3,8-diazabicyclo[3.2.1]octan-3-yl]methanone] showed an EC50 of 1 to 10 µM. `COc1ccc(S(=O)(=O)CC2CCC2)cc1N1CCN(C(=O)c2ccc(F)cc2Cl)CC1` [Cpd 012, (2-chloro-4-fluoro-phenyl)-[4-[5-(cyclobutylmethylsulfonyl)-2-methoxy-phenyl]piperazin-1-yl]methanone] had an EC50 of 10 to 50 µM. The figure for `CCC(C)S(=O)(=O)c1ccc(OC)c(N2C3CCC2CN(C(=O)c2ccc(F)cc2Cl)C3)c1` (racemic) [Cpd 022, (2-chloro-4-fluoro-phenyl)-[(1S,5R)-8-[2-methoxy-5-[(1SR)-1-methylpropyl]sulfonyl-phenyl]-3,8-diazabicyclo[3.2.1]octan-3-yl]methanone] is 1 to 10 µM; for `COc1ccc(S(=O)(=O)C(C)CCc2ccccc2)cc1N1C2CCC1CN(C(=O)c1ccc(F)cc1Cl)C2` (racemic) [Cpd 023, (2-chloro-4-fluoro-phenyl)-[(1S,5R)-8-[2-methoxy-5-[(1SR)-1-methyl-3-phenyl-propyl]sulfonyl-phenyl]-3,8-diazabicyclo[3.2.1]octan-3-yl]methanone] it is 1 to 10 µM; for `COc1ccc(S(=O)(=O)CCC2CCCC2)cc1N1[C@@H]2CC[C@H]1CN(C(=O)c1ccc(F)cc1Cl)C2` [Cpd 019, (2-chloro-4-fluoro-phenyl)-[(1S,5R)-8-[5-(2-cyclopentylethylsulfonyl)-2-methoxy-phenyl]-3,8-diazabicyclo[3.2.1]octan-3-yl]methanone] it is 1 to 10 µM. For the compound `COc1ccc(S(=O)(=O)CC(C)C)cc1N1CCN(C(=O)c2ccc(F)cc2C(F)(F)F)CC1` [Cpd 018, [4-fluoro-2-(trifluoromethyl)phenyl]-[4-(5-isobutylsulfonyl-2-methoxy-phenyl)piperazin-1-yl]methanone], the EC50 was 10 to 50 µM. The figure for `COc1ccc(S(=O)(=O)C2CCCCC2)cc1N1CCN(C(=O)c2ccc(F)cc2C(F)(F)F)CC1` [Cpd 003, [4-(5-cyclohexylsulfonyl-2-methoxy-phenyl)piperazin-1-yl]-[4-fluoro-2-(trifluoromethyl)phenyl]methanone] is 10 to 50 µM; for `CCC(CC)CS(=O)(=O)c1ccc(OC)c(N2[C@@H]3CC[C@H]2CN(C(=O)c2ccc(F)cc2Cl)C3)c1` [Cpd 021, (2-chloro-4-fluoro-phenyl)-[(1S,5R)-8-[5-(2-ethylbutylsulfonyl)-2-methoxy-phenyl]-3,8-diazabicyclo[3.2.1]octan-3-yl]methanone] it is 1 to 10 µM; for `COc1ccc(S(=O)(=O)CC2CCCC2)cc1N1CCN(C(=O)c2ccc(F)cc2Cl)CC1` [Cpd 013, (2-chloro-4-fluoro-phenyl)-[4-[5-(cyclopentylmethylsulfonyl)-2-methoxy-phenyl]piperazin-1-yl]methanone] it is 1 to 10 µM.
